Earlier results on 1 compound are cited in patent US20050277634A1, “Liquid composition for veterinary medicine and process for the preparation and use thereof” (Boehringer Ingelheim Vetmedica GmbH, priority 2004, published 2005).

The conditions of the data set: injectable solution, subcutaneous administration.

Consider `Cc1cnc(NC(=O)C2=C(O)c3ccccc3S(=O)(=O)N2C)s1` [meloxicam], for which the Bioavailability result was “fully bioavailable” and the “Time to maximum plasma concentrations” value was “after a few hours”.
